From ChEMBL document CHEMBL1201862, “PubChem BioAssay data set” (2004)
Activity calls are given as the source filed them.

Key:
[1] = target: Cytochrome P450 2D6 (Homo sapiens, UniProt P10635);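 note: CYP2D6 member of a cytochrome P450 panel assay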
[2] = target: T1, Caspase-3 (Homo sapiens, UniProt P42574); type: functional;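 note: Dose-response selectivity test against caspase-3 for candidate inhibitors of sentrin-specific proteases (SENPs)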
T1 sequence (P42574 whole entry): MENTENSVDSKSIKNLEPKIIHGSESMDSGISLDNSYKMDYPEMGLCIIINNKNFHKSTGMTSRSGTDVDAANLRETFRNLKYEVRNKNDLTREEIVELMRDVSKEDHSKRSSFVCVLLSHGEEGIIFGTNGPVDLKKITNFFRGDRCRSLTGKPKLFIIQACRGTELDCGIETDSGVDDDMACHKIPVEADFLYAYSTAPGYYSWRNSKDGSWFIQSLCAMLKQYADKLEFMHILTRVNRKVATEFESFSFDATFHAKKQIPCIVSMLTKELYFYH

[3] = HEK-293T viability loss after treatment – luminescence, T-cell screen hits, cytotoxicity control for TCR NF-kB inhibitor project, dose response (AID 489026); type: functional, cell-based;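 note: cells exposed to compound about 14 hours before the viability readout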
[4] = target: T2, Sentrin-specific protease 7 (Homo sapiens, UniProt Q9BQF6); type: functional;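 note: Luminescence-based dose-response confirmation of ultra-high-throughput screening hits, measuring inhibition of SENP7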
T2 sequence (Q9BQF6 whole entry): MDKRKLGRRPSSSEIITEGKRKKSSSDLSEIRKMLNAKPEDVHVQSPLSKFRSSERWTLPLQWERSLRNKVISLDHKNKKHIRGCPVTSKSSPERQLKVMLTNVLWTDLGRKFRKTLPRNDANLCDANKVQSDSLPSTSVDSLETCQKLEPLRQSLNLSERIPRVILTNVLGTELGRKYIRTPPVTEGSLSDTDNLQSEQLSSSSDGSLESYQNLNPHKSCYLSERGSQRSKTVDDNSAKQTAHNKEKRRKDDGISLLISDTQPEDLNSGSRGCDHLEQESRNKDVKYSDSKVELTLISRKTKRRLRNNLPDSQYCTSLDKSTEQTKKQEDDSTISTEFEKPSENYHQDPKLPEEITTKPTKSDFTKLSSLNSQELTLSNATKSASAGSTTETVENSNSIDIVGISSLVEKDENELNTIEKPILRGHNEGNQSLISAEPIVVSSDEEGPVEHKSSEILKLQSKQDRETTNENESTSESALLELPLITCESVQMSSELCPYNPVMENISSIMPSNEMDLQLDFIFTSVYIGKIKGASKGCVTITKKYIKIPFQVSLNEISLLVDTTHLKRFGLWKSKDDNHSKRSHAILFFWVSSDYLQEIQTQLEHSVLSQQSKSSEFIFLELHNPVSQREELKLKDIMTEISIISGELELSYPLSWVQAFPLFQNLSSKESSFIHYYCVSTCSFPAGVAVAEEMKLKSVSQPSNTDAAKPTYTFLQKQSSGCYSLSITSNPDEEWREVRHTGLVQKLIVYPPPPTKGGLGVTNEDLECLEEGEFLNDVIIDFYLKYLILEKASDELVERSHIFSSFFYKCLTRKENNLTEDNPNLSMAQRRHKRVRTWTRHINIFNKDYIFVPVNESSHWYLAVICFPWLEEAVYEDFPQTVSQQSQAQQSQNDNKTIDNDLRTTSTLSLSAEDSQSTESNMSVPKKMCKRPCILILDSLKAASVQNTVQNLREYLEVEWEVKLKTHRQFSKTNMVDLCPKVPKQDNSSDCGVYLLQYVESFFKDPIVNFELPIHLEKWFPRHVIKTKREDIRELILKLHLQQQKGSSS

[5] = target: T3, Sentrin-specific protease 6 (Homo sapiens, UniProt Q9GZR1); type: functional;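 note: Luminescence-based dose-response confirmatory assay of SENP6 inhibition, following up an ultra-high-throughput screen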
T3 sequence (Q9GZR1 whole entry): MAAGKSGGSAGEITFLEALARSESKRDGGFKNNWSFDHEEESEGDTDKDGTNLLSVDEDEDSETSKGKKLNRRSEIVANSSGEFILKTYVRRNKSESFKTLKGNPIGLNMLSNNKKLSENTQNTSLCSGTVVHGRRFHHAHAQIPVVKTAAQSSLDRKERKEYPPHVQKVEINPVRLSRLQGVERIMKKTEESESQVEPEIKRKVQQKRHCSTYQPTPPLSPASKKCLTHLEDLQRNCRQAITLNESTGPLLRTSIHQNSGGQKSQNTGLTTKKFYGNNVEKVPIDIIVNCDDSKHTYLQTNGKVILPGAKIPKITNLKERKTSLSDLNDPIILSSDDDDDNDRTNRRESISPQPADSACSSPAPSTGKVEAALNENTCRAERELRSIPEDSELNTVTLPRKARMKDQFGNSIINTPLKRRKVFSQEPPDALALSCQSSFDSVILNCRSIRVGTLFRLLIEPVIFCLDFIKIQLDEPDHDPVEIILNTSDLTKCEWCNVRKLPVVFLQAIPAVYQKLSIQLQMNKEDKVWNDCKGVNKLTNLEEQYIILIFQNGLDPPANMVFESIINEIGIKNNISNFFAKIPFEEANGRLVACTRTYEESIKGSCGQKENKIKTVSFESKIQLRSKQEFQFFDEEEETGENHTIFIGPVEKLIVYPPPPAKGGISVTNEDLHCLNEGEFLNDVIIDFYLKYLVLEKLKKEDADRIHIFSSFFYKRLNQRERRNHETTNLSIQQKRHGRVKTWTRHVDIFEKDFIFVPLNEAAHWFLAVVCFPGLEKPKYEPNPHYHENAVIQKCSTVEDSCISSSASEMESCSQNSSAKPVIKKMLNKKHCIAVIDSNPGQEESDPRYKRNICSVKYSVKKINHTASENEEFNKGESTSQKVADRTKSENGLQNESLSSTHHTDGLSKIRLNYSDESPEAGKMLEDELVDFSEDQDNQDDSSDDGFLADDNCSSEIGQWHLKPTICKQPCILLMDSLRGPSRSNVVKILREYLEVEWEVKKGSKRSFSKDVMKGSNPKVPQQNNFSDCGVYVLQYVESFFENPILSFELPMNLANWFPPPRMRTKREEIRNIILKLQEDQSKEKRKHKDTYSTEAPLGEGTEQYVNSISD

[6] = target: T4, Sentrin-specific protease 8 (Homo sapiens, UniProt Q96LD8); type: functional;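 note: luminescence read-out of SENP8 inhibition, dose-response confirmation following an ultra-high-throughput screen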
T4 sequence (Q96LD8 whole entry): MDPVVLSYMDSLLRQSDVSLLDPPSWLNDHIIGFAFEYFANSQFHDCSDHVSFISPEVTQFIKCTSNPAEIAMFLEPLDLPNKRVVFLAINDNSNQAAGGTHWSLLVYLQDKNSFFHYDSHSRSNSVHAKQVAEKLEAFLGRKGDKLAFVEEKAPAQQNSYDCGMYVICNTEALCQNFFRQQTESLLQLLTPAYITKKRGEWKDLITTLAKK

[7] = viability of PTEN-deleted HCT116 cells – cell-based, HCT116 PTEN knockout, dose response (AID 1047); type: functional;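 note: HCT116 colon tumor cells with PTEN knocked out; cells exposed to compound for 60 hours before readout; potency for loss of cell viability measured by luminescence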
[8] = viability of HCT116 lacking mutant beta-catenin – cell-based, human colon tumor, dose response (AID 1045); type: functional;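 note: HCT116 colon tumor cells with beta catenin knocked out; cells exposed to compound for 60 hours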
[9] = target: T5, Cytochrome P450 1A2 (Homo sapiens, UniProt P05177);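 note: PubChem cytochrome P450 panel assay, CYP1A2 panel member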
T5 sequence (P05177 whole entry): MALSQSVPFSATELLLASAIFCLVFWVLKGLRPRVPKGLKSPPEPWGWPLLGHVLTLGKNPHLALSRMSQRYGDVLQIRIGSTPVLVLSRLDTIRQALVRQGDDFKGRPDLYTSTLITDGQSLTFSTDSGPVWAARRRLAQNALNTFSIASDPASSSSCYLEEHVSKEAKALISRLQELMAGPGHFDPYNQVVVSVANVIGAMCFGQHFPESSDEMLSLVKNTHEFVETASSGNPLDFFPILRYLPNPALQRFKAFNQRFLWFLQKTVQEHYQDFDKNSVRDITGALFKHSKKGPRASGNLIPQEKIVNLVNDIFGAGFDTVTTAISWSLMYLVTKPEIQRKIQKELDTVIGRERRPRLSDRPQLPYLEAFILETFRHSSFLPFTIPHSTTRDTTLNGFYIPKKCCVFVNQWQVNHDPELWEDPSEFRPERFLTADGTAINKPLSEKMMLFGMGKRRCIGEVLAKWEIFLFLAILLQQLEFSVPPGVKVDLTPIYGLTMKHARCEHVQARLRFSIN

[10] = Luminescence Cell-Based Dose Retest to Confirm Inhibitors of Cancer Stem Cells. [Related pubchem assays (depositor defined):AID2717, AID2721]; type: functional; settings: Homo sapiens
[11] = target: Cytochrome P450 2C9 (Homo sapiens, UniProt P11712)
[12] = target: Induced myeloid leukemia cell differentiation protein Mcl-1 (Homo sapiens, UniProt Q07820); type: functional
[13] = target: Cytochrome P450 3A4 (Homo sapiens, UniProt P08684);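 note: CYP3A4 tested as one member of a cytochrome P450 panel screen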
[14] = target: Cytochrome P450 2C19 (Homo sapiens, UniProt P33261); test: Cytochrome panel assay with activity outcomes. Panel member name: p450-cyp2c19 Compounds with AC50 equal or less than 10 uM are considered active; type: functional
Chain of Cytochrome P450 2C19 (P33261 whole entry): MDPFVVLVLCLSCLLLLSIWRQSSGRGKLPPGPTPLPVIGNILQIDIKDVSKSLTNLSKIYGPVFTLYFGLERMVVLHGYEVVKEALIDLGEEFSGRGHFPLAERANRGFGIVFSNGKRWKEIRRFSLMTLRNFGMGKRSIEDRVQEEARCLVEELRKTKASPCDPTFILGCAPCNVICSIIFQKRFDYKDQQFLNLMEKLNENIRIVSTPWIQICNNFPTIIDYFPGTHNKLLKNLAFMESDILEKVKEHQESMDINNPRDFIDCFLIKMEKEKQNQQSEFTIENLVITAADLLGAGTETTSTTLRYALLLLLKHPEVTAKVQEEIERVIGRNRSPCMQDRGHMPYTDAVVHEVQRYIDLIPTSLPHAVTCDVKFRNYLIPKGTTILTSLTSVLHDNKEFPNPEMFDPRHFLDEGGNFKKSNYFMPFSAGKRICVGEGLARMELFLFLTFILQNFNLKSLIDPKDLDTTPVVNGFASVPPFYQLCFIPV

Chain of Cytochrome P450 2D6 (P10635 whole entry): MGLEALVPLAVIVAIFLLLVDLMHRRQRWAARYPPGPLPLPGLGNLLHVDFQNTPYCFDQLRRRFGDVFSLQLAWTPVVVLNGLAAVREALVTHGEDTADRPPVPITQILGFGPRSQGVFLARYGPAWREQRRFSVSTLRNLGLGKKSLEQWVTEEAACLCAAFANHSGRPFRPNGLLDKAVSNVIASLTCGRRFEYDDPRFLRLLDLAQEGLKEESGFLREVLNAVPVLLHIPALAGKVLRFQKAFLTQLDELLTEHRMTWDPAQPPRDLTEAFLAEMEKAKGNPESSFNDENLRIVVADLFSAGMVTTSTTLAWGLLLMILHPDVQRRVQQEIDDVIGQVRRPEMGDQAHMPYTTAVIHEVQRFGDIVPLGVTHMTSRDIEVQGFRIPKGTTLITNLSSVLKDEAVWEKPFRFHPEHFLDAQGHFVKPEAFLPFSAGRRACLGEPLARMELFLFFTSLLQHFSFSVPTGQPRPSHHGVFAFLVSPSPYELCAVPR
Chain of Cytochrome P450 2C9 (P11712 whole entry): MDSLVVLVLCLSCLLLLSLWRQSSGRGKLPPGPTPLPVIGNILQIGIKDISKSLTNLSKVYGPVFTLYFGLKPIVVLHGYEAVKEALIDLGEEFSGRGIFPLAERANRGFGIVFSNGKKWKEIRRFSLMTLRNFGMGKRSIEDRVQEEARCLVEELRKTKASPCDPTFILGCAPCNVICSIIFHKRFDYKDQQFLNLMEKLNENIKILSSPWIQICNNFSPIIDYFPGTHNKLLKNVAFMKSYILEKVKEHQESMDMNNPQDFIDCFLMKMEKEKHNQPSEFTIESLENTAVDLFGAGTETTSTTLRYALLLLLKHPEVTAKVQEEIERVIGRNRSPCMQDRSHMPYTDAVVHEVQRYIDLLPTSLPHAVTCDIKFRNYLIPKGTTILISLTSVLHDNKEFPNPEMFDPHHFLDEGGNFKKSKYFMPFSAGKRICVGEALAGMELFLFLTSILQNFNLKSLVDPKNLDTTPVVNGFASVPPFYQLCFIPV
Chain of Cytochrome P450 3A4 (P08684 whole entry): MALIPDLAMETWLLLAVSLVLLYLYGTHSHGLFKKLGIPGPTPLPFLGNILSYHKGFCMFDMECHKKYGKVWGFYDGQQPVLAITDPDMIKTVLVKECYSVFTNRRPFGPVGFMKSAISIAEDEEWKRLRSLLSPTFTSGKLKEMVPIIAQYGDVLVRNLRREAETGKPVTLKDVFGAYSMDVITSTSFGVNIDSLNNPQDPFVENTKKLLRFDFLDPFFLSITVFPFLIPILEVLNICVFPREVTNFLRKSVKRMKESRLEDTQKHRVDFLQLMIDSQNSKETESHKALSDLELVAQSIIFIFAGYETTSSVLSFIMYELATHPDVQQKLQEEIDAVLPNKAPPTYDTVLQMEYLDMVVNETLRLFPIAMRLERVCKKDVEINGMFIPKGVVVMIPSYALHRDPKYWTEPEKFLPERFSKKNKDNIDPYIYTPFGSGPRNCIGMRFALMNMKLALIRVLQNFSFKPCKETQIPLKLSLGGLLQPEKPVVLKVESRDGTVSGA
Chain of Induced myeloid leukemia cell differentiation protein Mcl-1 (Q07820 whole entry): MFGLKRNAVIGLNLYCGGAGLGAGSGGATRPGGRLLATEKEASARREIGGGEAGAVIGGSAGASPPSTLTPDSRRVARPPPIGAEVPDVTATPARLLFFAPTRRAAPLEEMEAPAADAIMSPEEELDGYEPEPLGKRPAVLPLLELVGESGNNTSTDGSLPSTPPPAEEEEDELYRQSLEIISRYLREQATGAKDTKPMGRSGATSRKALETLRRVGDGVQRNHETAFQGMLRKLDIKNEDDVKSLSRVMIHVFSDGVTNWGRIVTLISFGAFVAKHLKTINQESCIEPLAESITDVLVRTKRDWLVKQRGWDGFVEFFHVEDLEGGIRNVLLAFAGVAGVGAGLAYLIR

CN(C)c1ccc(NC(=O)CSc2nc(N)c(C(=O)Nc3ccc(N(C)C)cc3)s2)cc1
AC50 [1]: 17.8 µM (inconclusive)

Cc1ccc(O)c(NC(=O)c2cc(-c3ccco3)on2)c1
IC50 [2]: 21.3 µM (active)
IC50 [3]: > 80 µM (inactive)
IC50 [4]: 8.57 µM (active)
IC50 [5]: > 100 µM (inactive)
IC50 [6]: > 100 µM (inactive)

CCOC(=O)C(C(=O)OCC)C(Nc1cccc(Br)c1)c1ccccc1 (stereo not given)
EC50 [7]: 115 µM (active)
EC50 [8]: 147 µM (active)

O=C(c1cccc(F)c1)N1CCC2(CCCN(c3ncccn3)C2)CC1
AC50 [1]: 31.6 µM (inconclusive)
AC50 [9]: 25.1 µM (inconclusive)

Cc1cc(C)cc(NS(=O)(=O)c2ccc3[nH]cc(C(=O)NCc4ccco4)c(=O)c3c2)c1
EC50 [7]: 2.68 µM (active)
EC50 [8]: 1.78 µM (active)
AC50 [10]: 0.428 µM (active)

COc1ccc(-n2c(=O)c(-c3cn(C)c4ccccc34)nc3cncnc32)cc1
AC50 [11]: inconclusive

CCOC(=O)NNc1ccc2nonc2c1[N+](=O)[O-]
IC50 [12]: 42.2 µM (active)
IC50 [2]: 8.38 µM (active)
IC50 [4]: 10.8 µM (active)
IC50 [5]: 4.96 µM (active)
IC50 [6]: 4.85 µM (active)

N#Cc1cccc(-c2cc(NCc3cccs3)ncn2)c1
AC50 [1]: 20 µM (inconclusive)
AC50 [13]: 1.58 µM (inconclusive)

CC(C)OCCCN1C(=O)c2[nH]nc(-c3ccccc3O)c2C1c1cccc(Cl)c1 (stereo not given)
EC50 [7]: 25.2 µM (active)
EC50 [8]: 27.6 µM (active)

Cc1cc(C)n(CCc2nc(-c3ccc(-c4ccccc4)cc3)cs2)n1
IC50 [2]: 23.9 µM (active)
IC50 [4]: 4.98 µM (active)
IC50 [5]: 20.5 µM (active)
IC50 [6]: 59.3 µM (active)

Br.CCCCN1C2=NCCCN2c2ccccc21
AC50 [14]: inconclusive
AC50 [11]: inconclusive

Oc1nc(S)nc(SCc2c(Cl)c(Cl)c(Cl)c(Cl)c2Cl)n1
AC50 [1]: 3.98 µM (inconclusive)
